Experiments:
[1] = Fluorescent responses of RTMI to various ROS in PBS
Protocol: Fresh solutions of L-ascorbic acid (50 mM), hydrogen peroxide (100 mM), tert-butyl hydrogen peroxide (TBHP, 100 mM), 3-morpholinosydnonimine (SIN-1, 5 mM), glutathione reduced form (GSH, 10 mM) and glutathione oxidized form (GSSG, 10 mM) were prepared with distilled water. […]
The hydroxyl and butoxyl radicals were generated in situ by reacting hydrogen peroxide or TBHP with Fe^2+. Fresh 10 mM Fe^2+ was made in 0.1 M HCl solution using ferrous ammonium sulfate [Fe(NH4)2(SO4)2.6H2O]. A 10 μM RTMI solution, in PBS, containing 10 μM Fe^2+ was made and either hydrogen peroxide or TBHP was added to this solution to generate a 100 μM concentration.
Fluorescence spectra were recorded on a Perkin-Elmer LS55 luminescence spectrometer at 293 K. The excitation wavelengths and filters used were indicated in the figures. The pH measurements were carried out on a Corning pH meter equipped with a Sigma-Adrich micro combination electrode calibrated with standard buffer solution.
Fluorescent responses of RTMI (100 μM) to various ROS were monitored in PBS, containing 1% methanol. Various reactive oxygen species were added to the 100 μM RTMI solutions, at a 5:1 molar ratio to RTMI, and the fluorescence intensity was recorded after 5 min of incubation at 25° C. Superoxide (O2.^−) was added as solid KO2. Stock solution solutions of hydrogen peroxide, tert-butyl hydrogen peroxide (TBHP), hypochlorite, 3-morpholinosydnonimine (SIN-1), glutathione (GSH) and 1,4-hydroquinone were made and then added to the RTMI solution, to generate a 500 μM final concentration. 3-(aminopropyl)-1-hydroxy-3-isopropyl-2-oxo-1-triazene (NOC-5, 1 mM) was made as a 10 mM sodium hydroxide solution and then added to the RTMI solution, to generate a 500 μM final concentration. The hydroxyl and butoxyl radicals were generated in situ by reacting hydrogen peroxide or TBHP with Fe^2+. A 100 μM RTMI solution, in PBS, containing 500 μM Fe^2 was made and either hydrogen peroxide or TBHP was added to this solution to generate a 500 μM concentration.

BAEC cells = assay: Detection of ROS in live BAEC cells by fluorescence microscopy; format: cell-based, bovine; details: HO., H2O2, KO2, TBO, TBHP, peroxynitrite or ox-LDL, RTMI 10 μM
Protocol: In one embodiment, the RTMI may be used to analyze ROS species within living systems. The RTMI sensor solution was applied to live cells and analyzed under a fluorescence microscope. Each of the various ROS (HO., H2O2, KO2, TBO, TBHP, peroxynitrite) or ROS inducer (ox-LDL) that were present combined with the RTMI sensor were incubated with BAEC cells.
The sensor RTMI was dissolved in DMF at a concentration of 10 mM. 1 μL of the DMF solution was added to cell medium without fetal bovine serum. Cell culture medium was removed from the cells in the culture dish and replaced with the fresh medium containing the sensor.
Oxidized low density lipoprotein (Ox-LDL, a stimulation factor for ROS production in cells) was dissolved in water solution and the final concentration in cell media was 20 μg/mL.
Commercial H2O2 (30% wt, density of 1.1 g/ml, MW 34.02 g/mol) was diluted with deionized water to make a fresh solution of 100 mM. 1 μL of the fresh solution was added to cell media to generate a final concentration of 100 μM.
SIN1 (a peroxyitrite donor) was dissolved in deionized water to the concentration of 10 mM; 10 μL of this solution added to cell media to generate a final concentration of 100 μM.
Fe^2+ was freshly made from ferrous ammonium sulfate (MW 392.15 g/mol) dissolved in 0.1 M HCl (DI water solution) to generate a fresh solution of 100 mM. […]

[2] = system: Bovine Aortic Endothelial Cells (BAEC); assay: Co-localization with Mito Tracker Green and Lyso Tracker Blue, confocal imaging in BAEC; format: cell-based; details: BAEC preloaded with TBHP (100 μM) 30 min, RTMI (10 μM) 30 min
Protocol: Confocal fluorescence imaging studies were performed with a Zeiss LSM 710 laser scanning microscope.

[3] = Photo stability of the sensor; format: physicochemical
[4] = RTMI 100 μM in PBS, 1% methanol, 500 μM, 5 min, 25° C.

CCCN1c2ccccc2C(C)(C)C1/C=C/C1=C2Oc3cc(O)ccc3C=C2CCC1 (stereo not drawn) [RTMI]
fluorescence response to TBHP [1, 4]: turn-on
fluorescence response to hydrogen peroxide [1, 4]: turn-on
fluorescence response to peroxynitrite (generated by SIH 1) [1, 4]: turn-on
fluorescence response to superoxide (O2.-) ([1]; RTMI 100 μM in PBS, 1% methanol, solid KO2, 5:1 molar ratio, 5 min, 25° C.): turn-on
fluorescence response to butoxyl radical (TBO) ([1]; RTMI 100 μM in PBS, generated in situ from TBHP 500 μM and Fe2+ 500 μM): turn-on
fluorescence response to hydroxyl radical ([1]; RTMI 100 μM in PBS, generated in situ from hydrogen peroxide 500 μM and Fe2+ 500 μM): turn-on
fluorescence response to Fe2+ ([1]; beyond baseline fluorescence): does not respond
fluorescence response to GSH ([1]; beyond baseline fluorescence): does not respond
fluorescence response to GSSG ([1]; beyond baseline fluorescence): does not respond
fluorescence response to nitrite ([1]; beyond baseline fluorescence): does not respond
fluorescence response to nitric oxide radical ([1]; beyond baseline fluorescence, NOC-5): does not respond
fluorescence peak upon reacting with ROS ([1]; in physiological buffer, near IR region): 705 nm
fluorescence emission in the near IR region of cells treated with ROS or ROS inducers, compared to the control (BAEC cells): strongly fluorescence emission signals
subcellular location of ROS detected by the sensor [2]: in lysosomes
photo stability [3]: very good photo stability
